Test results reported in patent US20250346575A1, “ISOINDOLINONE DERIVATIVE HAVING GLUTARIMIDE MOTHER NUCLEUS, AND USE THEREOF” (KOREA RESEARCH INSTITUTE OF CHEMICAL TECHNOLOGY, priority 2021, published 2025).

Test system: Cancer cells (KG-1)
Test: Cytotoxicity assay, WST-1, KG-1
Format: cell-based
Conditions: Homo sapiens; KG-1 cells, 72 hours, WST-1
Experimental: To evaluate the effect of the compounds of the present disclosure on cancer cells, a cytotoxicity assay was conducted as follows.
Cancer cells (KG-1) were seeded at a concentration of 10,000 cells per well into a 96-well plate. Then, the cells were treated with predetermined concentrations of compounds of the Examples and comparative substances (comparative compounds 1, 2, 3). After 72 hours, the cells were incubated with WST-1 reagent for one hour. Then, absorbance was measured at 450 nm using a spectramax spectrophotometer to assess the degree of cancer cell apoptosis. The IC50 (μM) values were calculated using the measured values with the GraphPad Prism program and the measurements are summarized in Table 1.

**Q.** How did the IC50 turn out when O=C1CCC(N2Cc3cc(CNC(=O)c4ccc5cc(Cl)ccc5n4)ccc3C2=O)C(=O)N1 (stereo not shown) [Comparative Compound 3, 6-Chloro-N-((2-(2,6-dioxopiperidin-3-yl)-1-oxoisoindolin-5-yl)methyl)quinoline-2-carboxamide, reference compound] was run?
**A.** 10 to 50 µM

**Q.** For O=C1CCC(N2Cc3cc(CNC(=O)c4ccccc4)ccc3C2=O)C(=O)N1 (stereo not shown) [Comparative substance, reference compound], which IC50 is on record?
**A.** 10 to 50 µM

**Q.** How did the IC50 turn out when O=C1CCC(N2Cc3cc(CNC(=O)c4n[nH]c5cc(Cl)ccc45)ccc3C2=O)C(=O)N1 (stereo not shown) [Compound 1, 6-Chloro-N-((2-(2,6-dioxopiperidin-3-yl)-1-oxoisoindolin-5-yl)methyl)-1H-indazole-3-carboxamide] was run?
**A.** 0.0001 to 0.01 µM

**Q.** How did the IC50 turn out when O=C1CCC(N2Cc3cc(CNC(=O)c4cc(-c5ccc(Cl)cc5)n[nH]4)ccc3C2=O)C(=O)N1 (stereo not shown) [Compound 2, 3-(4-Chlorophenyl)-N-((2-(2,6-dioxopiperidin-3-yl)-1-oxoisoindolin-5-yl)methyl)-1H-pyrazole-5-carboxamide] was run?
**A.** 0.0001 to 0.01 µM

**Q.** O=C1CCC(N2Cc3cc(CNC(=O)c4n[nH]c5cc(Cl)c(Cl)cc45)ccc3C2=O)C(=O)N1 (stereo not shown) [Compound 4, 5,6-Dichloro-N-((2-(2,6-dioxopiperidin-3-yl)-1-oxoisoindolin-5-yl)methyl)-1H-indazole-3-carboxamide] was tested. Which IC50 did it give?
**A.** 0.0001 to 0.01 µM

**Q.** O=C1CCC(N2Cc3cc(CNC(=O)c4cc(-c5cccc(Cl)c5)n[nH]4)ccc3C2=O)C(=O)N1 (stereo not shown) [Compound 5, 3-(3-Chlorophenyl)-N-((2-(2,6-dioxopiperidin-3-yl)-1-oxoisoindolin-5-yl)methyl)-1H-pyrazole-5-carboxamide] was tested. Which IC50 did it give?
**A.** 0.0001 to 0.01 µM

**Q.** For O=C1CCC(N2Cc3cc(CNC(=O)c4c[nH]c5cc(Cl)ccc45)ccc3C2=O)C(=O)N1 (stereo not shown) [Compound 6, 6-chloro-N-((2-(2,6-dioxopiperidin-3-yl)-1-oxoisoindolin-5-yl)methyl)-1H-indole-3-carboxamide], which IC50 is on record?
**A.** 0.01 to 1 µM

**Q.** How did the IC50 turn out when O=C1CCC(N2Cc3cc(CNC(=O)c4c[nH]c5ccc(Cl)cc45)ccc3C2=O)C(=O)N1 (stereo not shown) [Compound 7, 5-Chloro-N-((2-(2,6-dioxopiperidin-3-yl)-1-oxoisoindolin-5-yl)methyl)-1H-indole-3-carboxamide] was run?
**A.** 0.01 to 1 µM

**Q.** For O=C1CCC(N2Cc3cc(CNC(=O)c4n[nH]c5ccc(Cl)cc45)ccc3C2=O)C(=O)N1 (stereo not shown) [Compound 8, 5-Chloro-N-((2-(2,6-dioxopiperidin-3-yl)-1-oxoisoindolin-5-yl)methyl)-1H-indazole-3-carboxamide], which IC50 is on record?
**A.** 0.01 to 1 µM

**Q.** O=C1CCC(N2Cc3cc(CNC(=O)c4cc5ccc(Cl)cc5[nH]4)ccc3C2=O)C(=O)N1 (stereo not shown) [Compound 9, 6-chloro-N-((2-(2,6-dioxopiperidin-3-yl)-1-oxoisoindolin-5-yl)methyl)-1H-indole-2-carboxamide] was tested. Which IC50 did it give?
**A.** 0.01 to 1 µM

**Q.** O=C1CCC(N2Cc3cc(CNC(=O)c4cc(-c5ccc(Cl)cc5)on4)ccc3C2=O)C(=O)N1 (stereo not shown) [Compound 11, 5-(4-Chlorophenyl)-N-((2-(2,6-dioxopiperidin-3-yl)-1-oxoisoindolin-5-yl)methyl)isoxazole-3-carboxamide] was tested. Which IC50 did it give?
**A.** 0.0001 to 0.01 µM

**Q.** With O=C1CCC(N2Cc3cc(CNC(=O)c4cc(-c5cccc(Cl)c5)c[nH]4)ccc3C2=O)C(=O)N1 (stereo not shown) [Compound 14, 4-(3-Chlorophenyl)-N-((2-(2,6-dioxopiperidin-3-yl)-1-oxoisoindolin-5-yl)methyl)-1H-pyrrole-2-carboxamide] as the molecule, how does the IC50 read?
**A.** 0.0001 to 0.01 µM

**Q.** For O=C1CCC(N2Cc3cc(CNC(=O)c4cn(-c5cccc(Cl)c5)nn4)ccc3C2=O)C(=O)N1 (stereo not shown) [Compound 15, 1-(3-chlorophenyl)-N-((2-(2,6-dioxopiperidin-3-yl)-1-oxoisoindolin-5-yl)methyl)-1H-1,2,3-triazole-4-carboxamide], which IC50 is on record?
**A.** 0.0001 to 0.01 µM

**Q.** Which IC50 does the source give for O=C1CCC(N2Cc3cc(CNC(=O)c4nc5cc(Cl)c(Cl)cc5[nH]4)ccc3C2=O)C(=O)N1 (stereo not shown) [Compound 16, 5,6-dichloro-N-((2-(2,6-dioxopiperidin-3-yl)-1-oxoisoindolin-5-yl)methyl)-1H-benzo[d]imidazole-2-carboxamide] here?
**A.** 0.01 to 1 µM

**Q.** Which IC50 does the source give for Cc1c(C(=O)NCc2ccc3c(c2)CN(C2CCC(=O)NC2=O)C3=O)n[nH]c1-c1ccccc1 (stereo not shown) [Compound 17, N-((2-(2,6-Dioxopiperidin-3-yl)-1-oxoisoindolin-5-yl)methyl)-4-methyl-5-phenyl-1H-pyrazole-3-carboxamide] here?
**A.** 0.0001 to 0.01 µM

**Q.** How did the IC50 turn out when O=C1CCC(N2Cc3cc(CNC(=O)c4cc(-c5ccc(Cl)cc5)ccn4)ccc3C2=O)C(=O)N1 (stereo not shown) [Compound 18, 4-(4-chlorophenyl)-N-((2-(2,6-dioxopiperidin-3-yl)-1-oxoisoindolin-5-yl)methyl)picolinamide] was run?
**A.** 0.0001 to 0.01 µM

**Q.** How did the IC50 turn out when O=C1CCC(N2Cc3cc(CNC(=O)c4cc(-c5cccc(Cl)c5)on4)ccc3C2=O)C(=O)N1 (stereo not shown) [Compound 19, 5-(3-Chlorophenyl)-N-((2-(2,6-dioxopiperidin-3-yl)-1-oxoisoindolin-5-yl)methyl)isoxazole-3-carboxamide] was run?
**A.** 0.0001 to 0.01 µM

**Q.** Which IC50 does the source give for O=C1CCC(N2Cc3cc(CNC(=O)c4ncc(-c5cccc(Cl)c5)cn4)ccc3C2=O)C(=O)N1 (stereo not shown) [Compound 20, 5-(3-Chlorophenyl)-N-((2-(2,6-dioxopiperidin-3-yl)-1-oxoisoindolin-5-yl)methyl)pyrimidine-2-carboxamide] here?
**A.** 0.0001 to 0.01 µM

**Q.** Which IC50 does the source give for Cc1c(C(=O)NCc2ccc3c(c2)CN(C2CCC(=O)NC2=O)C3=O)nn(Cc2ccccc2)c1-c1cccc(Cl)c1 (stereo not shown) [Compound 21, 1-Benzyl-5-(3-chlorophenyl)-N-((2-(2,6-dioxopiperidin-3-yl)-1-oxoisoindolin-5-yl)methyl)-4-methyl-1H-pyrazole-3-carboxamide] here?
**A.** 0.0001 to 0.01 µM

**Q.** For Cn1nc(C(=O)NCc2ccc3c(c2)CN(C2CCC(=O)NC2=O)C3=O)cc1-c1ccccc1 (stereo not shown) [Compound 23, N-((2-(2,6-Dioxopiperidin-3-yl)-1-oxoisoindolin-5-yl)methyl)-1-methyl-5-phenyl-1H-pyrazole-3-carboxamide], which IC50 is on record?
**A.** 0.0001 to 0.01 µM

**Q.** How did the IC50 turn out when O=C1CCC(N2Cc3cc(CNC(=O)c4cc(-c5ccc(Cl)cc5Cl)[nH]n4)ccc3C2=O)C(=O)N1 (stereo not shown) [Compound 25, 5-(2,4-Dichlorophenyl)-N-((2-(2,6-dioxopiperidin-3-yl)-1-oxoisoindolin-5-yl)methyl)-1H-pyrazole-3-carboxamide] was run?
**A.** 0.0001 to 0.01 µM

**Q.** How did the IC50 turn out when O=C1CCC(N2Cc3cc(CNC(=O)c4nc5ccc(Cl)cc5s4)ccc3C2=O)C(=O)N1 (stereo not shown) [Compound 26, 6-Chloro-N-((2-(2,6-dioxopiperidin-3-yl)-1-oxoisoindolin-5-yl)methyl)benzo[d]thiazole-2-carboxamide] was run?
**A.** 0.01 to 1 µM

**Q.** O=C1CCC(N2Cc3cc(CNC(=O)c4n[nH]c(-c5cccc(Cl)c5)c4Br)ccc3C2=O)C(=O)N1 (stereo not shown) [Compound 27, 4-Bromo-3-(3-chlorophenyl)-N-((2-(2,6-dioxopiperidin-3-yl)-1-oxoisoindolin-5-yl)methyl)-1H-pyrazole-5-carboxamide] was tested. Which IC50 did it give?
**A.** 0.0001 to 0.01 µM

**Q.** O=C1CCC(N2Cc3cc(CNC(=O)c4cc(-c5cc(Cl)ccc5Cl)[nH]n4)ccc3C2=O)C(=O)N1 (stereo not shown) [Compound 28, 5-(2,5-Dichlorophenyl)-N-((2-(2,6-dioxopiperidin-3-yl)-1-oxoisoindolin-5-yl)methyl)-1H-pyrazole-3-carboxamide] was tested. Which IC50 did it give?
**A.** 0.0001 to 0.01 µM

**Q.** With Cc1ccc(-c2cc(C(=O)NCc3ccc4c(c3)CN(C3CCC(=O)NC3=O)C4=O)n[nH]2)c(C)c1 (stereo not shown) [Compound 29, 5-(2,4-Dimethylphenyl)-N-((2-(2,6-dioxopiperidin-3-yl)-1-oxoisoindolin-5-yl)methyl)-1H-pyrazole-3-carboxamide] as the molecule, how does the IC50 read?
**A.** 0.0001 to 0.01 µM

**Q.** Which IC50 does the source give for O=C1CCC(N2Cc3cc(CNC(=O)c4cccc(-c5ccccc5)c4)ccc3C2=O)C(=O)N1 (stereo not shown) [Compound 30, N-((2-(2,6-Dioxopiperidin-3-yl)-1-oxoisoindolin-5-yl)methyl)-[1,1′-biphenyl]-3-carboxamide] here?
**A.** 10 to 50 µM

**Q.** For Cc1ccnc(C(=O)NCc2ccc3c(c2)CN(C2CCC(=O)NC2=O)C3=O)c1 (stereo not shown) [Compound 31, N-((2-(2,6-Dioxopiperidin-3-yl)-1-oxoisoindolin-5-yl)methyl)-4-methylpicolinamide], which IC50 is on record?
**A.** 10 to 50 µM

**Q.** For O=C1CCC(N2Cc3cc(CNC(=O)c4n[nH]c5ccccc45)ccc3C2=O)C(=O)N1 (stereo not shown) [Compound 34, N-((2-(2,6-Dioxopiperidin-3-yl)-1-oxoisoindolin-5-yl)methyl)-1H-indazole-3-carboxamide], which IC50 is on record?
**A.** 0.01 to 1 µM

**Q.** For Cn1cc(Br)cc1C(=O)NCc1ccc2c(c1)CN(C1CCC(=O)NC1=O)C2=O (stereo not shown) [Compound 38, 4-Bromo-N-((2-(2,6-dioxopiperidin-3-yl)-1-oxoisoindolin-5-yl)methyl)-1-methyl-1H-pyrrole-2-carboxamide], which IC50 is on record?
**A.** 1 to 10 µM

**Q.** With Cn1cc(-c2ccccc2)cc1C(=O)NCc1ccc2c(c1)CN(C1CCC(=O)NC1=O)C2=O (stereo not shown) [Compound 39, N-((2-(2,6-Dioxopiperidin-3-yl)-1-oxoisoindolin-5-yl)methyl)-1-methyl-4-phenyl-1H-pyrrole-2-carboxamide] as the molecule, how does the IC50 read?
**A.** 0.0001 to 0.01 µM

**Q.** Which IC50 does the source give for Cn1cc(-c2cccc(Cl)c2)cc1C(=O)NCc1ccc2c(c1)CN(C1CCC(=O)NC1=O)C2=O (stereo not shown) [Compound 40, 4-(3-Chlorophenyl)-N-((2-(2,6-dioxopiperidin-3-yl)-1-oxoisoindolin-5-yl)methyl)-1-methyl-1H-pyrrole-2-carboxamide] here?
**A.** 0.0001 to 0.01 µM

Same assay, conditions: R1 bicyclic heteroaryl compared to monocyclic aryl (comparative substance) or heteroaryl (Compounds 37 and 38)

**Q.** How did the “cytotoxic activity against KG-1 and NCI-H1155 cancer cells (in words)” value turn out when O=C1CCC(N2Cc3cc(CNC(=O)c4nc5cc(Cl)ccc5[nH]4)ccc3C2=O)C(=O)N1 (stereo not shown) [Compound 3, 5-Chloro-N-((2-(2,6-dioxopiperidin-3-yl)-1-oxoisoindolin-5-yl)methyl)-1H-benzo[d]imidazole-2-carboxamide] was run?
**A.** more potent cytotoxic activity

**Q.** How did the “cytotoxic activity against KG-1 and NCI-H1155 cancer cells (in words)” value turn out when O=C1CCC(N2Cc3cc(CNC(=O)c4c[nH]c5ccc(Cl)cc45)ccc3C2=O)C(=O)N1 (stereo not shown) [Compound 7, 5-Chloro-N-((2-(2,6-dioxopiperidin-3-yl)-1-oxoisoindolin-5-yl)methyl)-1H-indole-3-carboxamide] was run?
**A.** more potent cytotoxic activity

Same assay, conditions: monocyclic heteroaryl R1 and aryl R2 compared to bicyclic heteroaryl R1 (Compounds 8, 9, and 26)

**Q.** Which “activity (in words)” value does the source give for Cc1c(C(=O)NCc2ccc3c(c2)CN(C2CCC(=O)NC2=O)C3=O)n[nH]c1-c1ccccc1 (stereo not shown) [Compound 17, N-((2-(2,6-Dioxopiperidin-3-yl)-1-oxoisoindolin-5-yl)methyl)-4-methyl-5-phenyl-1H-pyrazole-3-carboxamide] here?
**A.** significantly more potent activity

**Q.** For Cn1nc(C(=O)NCc2ccc3c(c2)CN(C2CCC(=O)NC2=O)C3=O)cc1-c1ccccc1 (stereo not shown) [Compound 23, N-((2-(2,6-Dioxopiperidin-3-yl)-1-oxoisoindolin-5-yl)methyl)-1-methyl-5-phenyl-1H-pyrazole-3-carboxamide], which “activity (in words)” value is on record?
**A.** significantly more potent activity

**Q.** Cn1cc(-c2ccccc2)cc1C(=O)NCc1ccc2c(c1)CN(C1CCC(=O)NC1=O)C2=O (stereo not shown) [Compound 39, N-((2-(2,6-Dioxopiperidin-3-yl)-1-oxoisoindolin-5-yl)methyl)-1-methyl-4-phenyl-1H-pyrrole-2-carboxamide] was tested. Which “activity (in words)” value did it give?
**A.** significantly more potent activity

**Q.** With Cn1cc(-c2cccc(Cl)c2)cc1C(=O)NCc1ccc2c(c1)CN(C1CCC(=O)NC1=O)C2=O (stereo not shown) [Compound 40, 4-(3-Chlorophenyl)-N-((2-(2,6-dioxopiperidin-3-yl)-1-oxoisoindolin-5-yl)methyl)-1-methyl-1H-pyrrole-2-carboxamide] as the molecule, how does the “activity (in words)” value read?
**A.** significantly more potent activity
